Data taken from patent US9908890B2, “Selective inhibitors of constitutive androstane receptor” (ST. JUDE CHILDREN'S RESEARCH HOSPITAL, priority 2014, dated 2018).

Key:
[1] = tested on: CAR- and PXR-regulated genes in human primary hepatocytes; assay: Quantitative real-time PCR in human primary hepatocytes; format: cell-based; conditions: three donors, 1 μM CITCO or 5 μM PK11195, 48 h
Text: (§1) RNA was extracted, cDNA synthesized, and gene expression analyzed by performing real-time PCR using Taqman probes for each gene. […] LS174T cells were maintained in 10% charcoal-dextran-treated, FBS media for 4 days before the experiment. […] Briefly, human primary hepatocytes (HPH) were maintained in William's E media with supplements for 4 days before treatment. […] RNA extracted was used for cDNA synthesis and measured by performing quantitative real-time PCR assays with Taqman probes.
Briefly, human primary hepatocytes (donor 5) were maintained in William's E Media with supplements for 4 days prior to treatment. […] RNA extracted was used for cDNA synthesis and measured by quantitative real-time PCR with Taqman probes. CYP2B6 and CYP3A4 mRNA were normalized to the internal control 18S and DMSO-treated samples were set to 1.
(§2) Cell lines or human hepatocytes were treated with chemicals for 24-48 hours before RNA was extracted and purified by using the Maxwell 16LEV simplyRNA tissue kit (Promega). Then, cDNA was prepared from 2 μg of RNA, and diluted cDNA was used to perform quantitative RT-PCR assays by using TaqMan probes (ABI; 7500 Thermocycler) with 18S as the internal standard.

[2] = tested on: CAR-regulated genes in LS174T cells; assay: Quantitative real-time PCR in LS174T cells; format: cell-based; conditions: 1 μM CINPA1 or 5 μM PK11195, 24 h
Text: as §1
Briefly, LS174T were maintained in 10% charcoal-dextran treated-FBS media for 4 days prior to the experiment. […] For the data shown in both FIG. 12A and FIG. 12B, RNA extracted was used for cDNA synthesis and measured by quantitative real-time PCR with Taqman probes. MDR1 mRNA was normalized to the internal control 18S and DMSO treated samples were set to 1. *, p<0.05 when compared to DMSO samples.
as §2

[3] = tested on: CAR binding to CYP2B6 and CYP3A4 promoter response elements; assay: Chromatin immunoprecipitation (CAR / RNA polymerase II occupancy at promoters); format: cell-based, human; conditions: human primary hepatocytes, 3 donors, overnight, 1 μM CITCO or 5 μM CINPA1
Experimental: FIG. 8B and FIG. 8C show the fold enrichment of CAR at CYP2B6-dNR3 and CYP2B6-PBREM sites, respectively, in the promoter region following the indicated treatment in human primary hepatocytes. […] Protein complexes were cross-linked and chromatin was immunoprecipitated by using anti-CAR antibody or control IgG. CAR occupancy at two separate CYP2B6 promoter regions (dNR3 and PBREM) was determined by performing quantitative RT-PCR assays. Fold-enrichment normalized to IgG control was plotted. Data represent the mean±SD of 3 experiments. *, p<0.01 comparing CITCO treatment to DMSO treatment.
FIG. 9A, FIG. 9B, and FIG. 9C show the fold enrichment of CAR at CYP2B6-dNR3, CYP3A4-XREM, and CYP2B6-dNR3 sites, respectively, in the promoter region following the indicated treatment in human primary hepatocytes or HepG2-hCAR1 cells, as indicated in the figures. Briefly, in FIG. 9A and FIG. […] 9C HepG2-hCAR1 stable cells were treated for […] with DMSO, 1 μM CITCO, 5 μM CINPA1, or 1 μM CITCO+5 μM CINPA1. Protein complexes were cross-linked and chromatin was immunoprecipitated by using anti-CAR antibody, anti-RNA polymerase II (RPol) antibody, or control IgG. CAR or RPol occupancy at the CYP2B6-dNR3 region and CYP3A4-XREM region was determined by performing quantitative RT-PCR assays. Fold-enrichment was normalized to IgG control. Data represent the mean±SD of 3 experiments. *, p<0.001 and #, p<0.01 comparing CITCO to DMSO samples. **, p<0.001 and ##, p<0.01 comparing CITCO+CINPA1 to CITCO samples.
ChIP was performed as described previously (Cherian, M. T., et al. (2012) J. Biol. Chem. 287, 23368-23380). Briefly, human hepatocytes in 6-well plates were maintained for 3-4 days in Williams E medium containing Primary Hepatocyte Maintenance Supplement (Life Technologies), with daily media changes. Nine wells were used for each treatment group. […] The HepG2-hCAR1 stable cells in FIG. 9 were treated with DMSO, 1 μM CITCO, 5 μM CINPA1, or 1 μM CITCO+5 μM CINPA1 for […]. In FIG. 9, the hepatocytes from donor 7 were treated with DMSO, 0.1 μM CITCO, 1 μM CINPA1, or 0.1 μM CITCO+1 μM CINPA1 for 45 min. Proteins were cross-linked with 1% formaldehyde for 10 min. Cell extracts were digested for 10 min with 50 units of micrococcal nuclease (New England Biolabs) at 37° C. and further sonicated to yield sheared DNA fragments having an average length of 200-1000 base pairs. The sonicated samples were pelleted by centrifugation, and the supernatant was diluted 3- to 5-fold with ChIP dilution buffer (0.01% SDS, 1.1% Triton X-100, 1.2 mM EDTA, 16.7 mM Tris-HCl, pH 8.1, 167 mM NaCl, and protease inhibitor cocktail). […] Quantitative RT-PCR assays were performed to determine the change in CAR occupancy at various sites of CAR binding. […]

| CYP2B6 mRNA level, compound alone [1] | CYP2B6 mRNA level [2] | CYP3A4 mRNA level [2] | CAR recruitment to XREM (dNR3) of the CYP2B6 gene [3] | SMILES | MDR1 mRNA level [2] |
| --- | --- | --- | --- | --- | --- |
| increased CYP2B6 transcription | reduced the levels of CYP2B6 | increased that of CYP3A4 |  | CCC(C)N(C)C(=O)c1cc2ccccc2c(-c2ccccc2Cl)n1 (stereo not drawn) [PK11195, reference compound] | reduced MDR1 levels |
| induced CYP2B6 levels |  |  | enhances recruitment of CAR | Clc1ccc(-c2nc3sccn3c2/C=N/OCc2ccc(Cl)c(Cl)c2)cc1 [CITCO, 6-(4-chlorophenyl)imidazo [2,1-b][1,3]thiazole-5-carbaldehyde O-(3,4-dichlorobenzyl) oxime, reference compound] |  |
